Results on 14 molecules are retold here after patent US4782057A, “Benzo[h]cinnoline compound, a method of preparing said compound and a pharmaceutical composition” (Yoshitomi Pharmaceutical Industries, Ltd., priority 1984, dated 1988).

By Ki is commonly meant the dissociation constant of the complex between target and ligand, obtained from inhibition or displacement.

One data set concerns the target benzodiazepine receptor. As to the kind of experiment: Displacement of tritiated diazepam from benzodiazepine receptor (crude synaptosomal membranes of rat cerebral cortex). The class given is binding, male Wistar rats. Conditions: tritiated diazepam 2 nM, 4° C., 20 minutes, Tris-HCl pH 7.4. On the procedure:
A displacement ability for benzodiazepine receptor is shown as follows:
A specific binding for benzodiazepine receptor was determined according to the methods described in European Journal of Pharmacology, vol. 51, p. 129 (1978) and Life Science, vol. 20, p. 1201 (1977).
In brief, the crude synaptosomal membranes were prepared from the cerebral cortex of 9 to 10 week-old male Wistar rats and were suspended in Tris-HCl buffer (pH 7.4). Various concentrations of test compounds and tritiated diazepam (final concentration: 2 nM) were incubated at 4° C. for 20 minutes. Then the suspension was filtered through Whatman GF/B glass fiber filters. Radioactivity of tritiated diazepam on the filters was measured by liquid scintillation spectrometry. Specific binding was defined as the difference in the amount of radioactivity bound in the absence and presence of 1.0×10^-6 M unlabeled diazepam.
According to the above experimental method, the affinity of the compounds of the present invention is evaluated as an ability to displace tritiated diazepam from the binding site, and is represented as Ki value.
As to `O=C1CC2CCc3ccc(Cl)cc3C2=NN1c1ccccc1` (stereo not shown) [Example 1, 9-chloro-2-phenyl-4,4a,5,6-tetrahydrobenzo[h]cinnolin-3(2H)-one], the Ki turned out to be 120 nM. Still for that read-out and setting: next, `O=c1cc2c(nn1-c1ccccc1)-c1cc(Cl)ccc1CC2` [Example 2, 9-chloro-2-phenyl-5,6-dihydrobenzo[h]cinnolin-3(2H)-one]: 190 nM.

Molecule `O=c1cc2c(nn1-c1ccccc1)-c1ccccc1CC2` [Example 3, 2-phenyl-5,6-dihydrobenzo[h]cinnolin-3(2H)-one] had a Ki of 130 nM.

In turn, `Cc1ccc(N2N=C3c4cc(C)ccc4CCC3CC2=O)cc1` (stereo not shown) [Example 11, 9-Methyl-2-(4-methylphenyl)-4,4a,5,6-tetrahydrobenzo[h]cinnolin-3(2H)-one] came in with a Ki of 16 nM. On the same count and under the same terms, then `Cc1ccc2c(c1)C1=NN(c3ccc(Cl)cc3)C(=O)CC1CC2` (stereo not shown) [Example 12, 2-(4-Chlorophenyl)-9-methyl-4,4a,5,6-tetrahydrobenzo[h]cinnolin-3(2H)-one], with 26 nM; and `COc1ccc(N2N=C3c4cc(C)ccc4CCC3CC2=O)cc1` (stereo not shown) [Example 13, 2-(4-Methoxyphenyl)-9-methyl-4,4a,5,6-tetrahydrobenzo[h]cinnolin-3(2H)-one], with 6.6 nM. The same measure, in the same setting: then `COc1ccc2c(c1)C1=NN(c3ccc(C)cc3)C(=O)CC1CC2` (stereo not shown) [Example 14, 9-Methoxy-2-(4-methylphenyl)-4,4a,5,6-tetrahydrobenzo[h]cinnolin-3(2H)-one], with 8.2 nM; and `Cc1ccc(-n2nc3c(cc2=O)CCc2ccc(Cl)cc2-3)cc1` [Example 15, 9-Chloro-2-(4-methylphenyl)-5,6-dihydrobenzo[h]cinnolin-3(2H)-one], with 28 nM. The same measure, in the same setting: next, `Cc1ccc(N2N=C3c4cc(Cl)ccc4CCC3CC2=O)cc1` (stereo not shown) [Example 16, 9-Chloro-2-(4-methylphenyl)-4,4a,5,6-tetrahydrobenzo[h]cinnolin-3(2H)-one]: 14 nM. Turning to `O=c1cc2c(nn1-c1ccc(Cl)cc1)-c1cc(Cl)ccc1CC2` [Example 17, 9-Chloro-2-(4-chlorophenyl)-5,6-dihydrobenzo[h]cinnolin-3(2H)-one], the Ki is 47 nM. On the same count and under the same terms, next, `O=c1cc2c(nn1-c1ccc([N+](=O)[O-])cc1)-c1cc(Cl)ccc1CC2` [Example 18, 9-Chloro-2-(4-nitrophenyl)-5,6-dihydrobenzo[h]cinnolin-3(2H)-one]: 90 nM; `O=c1cc2c(nn1-c1ccc(Cl)cc1)-c1cc(F)ccc1CC2` [Example 19, 2-(4-Chlorophenyl)-9-fluoro-5,6-dihydrobenzo[h]cinnolin-3(2H)-one]: 45 nM; `O=C1CC2CCc3ccc(F)cc3C2=NN1c1ccc(Cl)cc1` (stereo not shown) [Example 20, 2-(4-Chlorophenyl)-9-fluoro-4,4a,5,6-tetrahydrobenzo[h]cinnolin-3(2H)-one]: 34 nM. Still for that read-out and setting: then `O=c1cc2c(nn1-c1ccccc1)-c1cc(F)ccc1CC2` [Example 30, 9-Fluoro-2-phenyl-5,6-dihydrobenzo[h]cinnolin-3(2H)-one], with 220 nM.

The test system of a further data set is mice. As to the kind of experiment: Acute toxicity in mice. The class given is in vivo. The conditions noted are these: intraperitoneal dose of 250 mg/kg. An excerpt:
The compound of Example 13 was orally or intraperitoneally administered to mice.
On to `COc1ccc(N2N=C3c4cc(C)ccc4CCC3CC2=O)cc1` (stereo not shown) [Example 13, 2-(4-Methoxyphenyl)-9-methyl-4,4a,5,6-tetrahydrobenzo[h]cinnolin-3(2H)-one], for which the “survival, acute toxicity” value was “All mice survived”.

Staying with this data set, now noted: oral dose of 1000 mg/kg.
As for `COc1ccc(N2N=C3c4cc(C)ccc4CCC3CC2=O)cc1` (stereo not shown) [Example 13, 2-(4-Methoxyphenyl)-9-methyl-4,4a,5,6-tetrahydrobenzo[h]cinnolin-3(2H)-one], the “survival, acute toxicity” value was “All mice survived”.
